Experiments:
Libelulla wheat variety = assay: Grain yield of Libelulla wheat (Example 31); assay type: in vivo; details: for Weight of grains, increase: in vivo; for Weight of grains collected from 100 ears: seed 2 kg/ha + soil 2 kg/ha, control 215.79
Description: (§1) Two wheat varieties, Libelulla and Mexican 226 K, were utilized in the tests performed under large-parcel field conditions. The sowing seeds were coated with the compositions of the invention according to the wet powder seed dressing technique; a dosis of 2 kg/ha was applied.
(§2) The soil was also treated with the compositions according to the invention directly before sowing. A dose of 2 kg/ha was applied.
(§3) The grain yields of the wheat varieties, harvested from the treated and control parcels, were measured, and the total nitrogen content and protein nitrogen content of the grains were determined.

grass stands = assay: Crop yield and nitrogen content of grass stand (Example 34); assay type: in vivo; details: for Protein nitrogen content / Total nitrogen content / Crop yield: 3 x 2 kg/ha; for Protein nitrogen content: control 2.80; for Total nitrogen content: control 4.22; for Crop yield: 4 m^2 parcels, control 5.10
Description: Tests were performed on grass stands to examine how the compositions according to the invention influence the crop yield, furthermore the total nitrogen content and protein nitrogen content of the crop.
Parcels, 4 m^2 in area, were separated and pegged out on a grass land, and the parcels were sprayed three times with the compositions according to the invention. The liquid compositions were diluted with water prior to spraying, and spraying was repeated in every two weeks. A dose of 2 kg/ha w was applied in each of the treatments.
Thereafter the grass was mowed, the green crop was weighed, and the total nitrogen content and protein nitrogen content of the mowed grass were determined.

Pinto beans = assay: Preservation of chlorophyll in Pinto beans (Example 17); assay type: in vivo; details: zeatin 20 ppm, kinetin/benzyladenine 30 ppm, others 200 ppm; for Extinction: 665 mμ, 200 mg fresh weight, 2 weeks
Description: Endogeneous and synthetic cytokinins were applied as comparative substances. Solutions with varying concentrations, but always more dilute than 10^-4 moles, were applied in the tests.
The tests were performed on Pinto beans. The plants were treated with an endogenous cytokinin (zeatine), synthetic cytokinins (kinetin, benzyladenine) or cytokinin-like compounds, respectively, and the chlorophyll content of the leaves was determined 2 weeks after the treatment by measuring the extinction of the extract of the leaves at 665 mμ.

Alfalfa = assay: Total and protein nitrogen content of alfalfa, field (Example 26); assay type: in vivo; details: for Protein nitrogen content: control 2.25; for Total nitrogen content: control 3.36
Description: Alfalfa was treated with the compositions according to the invention under large-parcel field conditions. The tests were performed in fourfold replications on parcels 1 hectare in area, each. The oily compositions according to the invention were diluted with water and then sprayed onto the test parcels either once or twice.
The parcels were sprayed first when the soil was already covered with sprouting alfalfa shoots. The second treatment, if any, was performed two weeks later. The dose applied in all of the treatments was 2 kg/ha.
The total nitrogen content and the protein nitrogen content of alfalfa, harvested from the untreated, once-treated and twice-treated parcels, was measured.

leaves of Pinto bean [1] = assay: Stimulation of photolytic activity, HTO, Pinto bean (Example 23); details: 18 hours, zeatin 20, kinetin/benzyladenine 30, others 200 ppm; for Photolytic activity: control 7.64
Description: The stimulating effects of an endogeneous cytokinin (zeatin), synthetic cytokinins (kinetin, benzyladenine) and the cytokinin-like regulators according to the invention exerted on the photolytic activity connected to the decomposition of HTO were examined on leaves of Pinto bean. The leaf discs were floated for 18 hours on solutions of the substances under examination, and then exposed to a radioactivity of 200 μCi/100 ml for one hour to effect photolysis of HTO.

maize for silage = assay: Green weight and nitrogen content of maize for silage (Example 28); assay type: in vivo; details: for Green weight: 2 kg/ha to soil, 200 m^2 parcels, control 365; for Total nitrogen content, absolute: control 0.30; for Real protein content, absolute: control 1.35; for Crude proteins, absolute: control 1.85; for Total carbon content, absolute: control 8.99; for Air-dry substance, absolute: control 20.57
Description: The tests were performed on parcels 200 m^2 in area. The compositions according to the invention were utilized as solid formulations, and were diluted with water prior to applying them onto the soil. The active agent was applied to the soil in an amount of 2 kg/ha directly before sowing. The green weight of the maize for silage, harvested from the treated and control parcels, was measured, and the dry substance content, crude protein content, real protein content, nitrogen content and carbon content of the green plants were determined.

Pea = assay: Stimulation of nutrient uptake, labelled phosphate, pea (Example 24); details: for labelled phosphate in nucleic acid fraction: 200 ppm, control 23.3
Description: (§4) The compositions according to the invention were diluted with distilled water to an active agent concentration of 200 ppm, and leaf segments of wheat, maize and pea, weighing 200 mg each, were treated with the solutions. Thereafter the treated green leaf segments were treated for 0.5 hours with a solution of labelled phosphate ions (radioactivity: 30 μCi/50 ml). After this exposition period the treated leaf segments and the untreated controls were processed in a manner known per se to isolate the nucleic acid fractions, and the isolated nucleic acid fractions were dissolved in 6 n ammonium hydroxide solution. Stock solutions were prepared from the resulting solutions, and the amount of labelled phosphate ions present in the stock solutions were measured by liquid scintillation.

Soybean = assay: Grain yield of soybean (Example 30); assay type: in vivo; details: 3 x 2 kg/ha; for Grain yield: control 29.53
Description: Soybean cultures were sprayed three times with the compositions according to the invention. The active agents were applied in a dosis of 2 kg/ha, in all of the treatments. The stand was sprayed first at the beginning of flowering, then at the flowering of the apical cluster, and finally two weeks after the second treatment.
The grain yield of soybean, harvested from the treated and control parcels, was measured.

Pinto bean = assay: Stimulation of membrane activity (nitrate uptake), Pinto bean (Example 25); assay type: in vivo; details: for Protein nitrogen / Total nitrogen: 2 weeks; for Protein nitrogen / Total nitrogen / Protein nitrogen, stimulation / Protein nitrogen content in % of the total nitrogen content: zeatin 20, kinetin/benzyladenine 30, others 200 ppm; for Protein nitrogen: control 2.4; for Total nitrogen: control 3.8; for Total nitrogen, stimulation: 200 ppm; for Protein nitrogen content in % of the total nitrogen content: control 63
Description: The tests were performed on Pinto bean. The plants were treated with solutions of an endogeneous cytokinin (zeatin), synthetic cytokinins and membraneactive regulators according to the invention, respectively, and the leaves of the plants were analyzed 2 weeks after the treatment.

Wheat = assay: Stimulation of nutrient uptake, labelled phosphate, wheat (Example 24); details: for labelled phosphate in nucleic acid fraction: 200 ppm, control 17.4
Description: as §4

Maize = assay: Stimulation of nutrient uptake, labelled phosphate, maize (Example 24); details: for labelled phosphate in nucleic acid fraction: 200 ppm, control 31.2
Description: as §4

[2] = tested on: Mexican 226 K wheat variety; assay: Nitrogen contents of grains of Mexican 226 K wheat (Example 31); assay type: in vivo; details: for Protein nitrogen content: control 1.61; for Total nitrogen content: seed 2 kg/ha + soil 2 kg/ha, control 2.12
Description: as §1, §2, §3

leaves of Pinto bean [3] = assay: Protein synthesis, glycine-2-14C incorporation in Pinto bean leaves (Example 19); details: 18 hours, zeatin 20 ppm, kinetin/benzyladenine 30 ppm, others 200 ppm
Description: The tests were performed on leaves of Pinto bean. The leaf segments were treated with an endogeneous cytokinin (zeatin), synthetic cytokinins (kinetin, benzyladenine) or with the compositions according to the invention, respectively, by floating the leaf segments on the solution of the test substance for 18 hours. Thereafter the leaf segments were exposed to a labelled amino acid (glycine-2-^14 C) for 3 hours, and the incorporation of the amino acid was determined by radiometry.

SMILES: N=C(N)N.N=C(N)N.Oc1nnc(O)c2ccccc12 [1,4-dihydroxyphthalazine diguanidine salt]
- Weight of grains, increase (Libelulla wheat variety): 7%
- Weight of grains collected from 100 ears (Libelulla wheat variety): 232.35 g
- Protein nitrogen content (grass stands): 2.62%
- Total nitrogen content (grass stands): 3.89%
- Crop yield (grass stands): 5.35
- Extinction (Pinto beans): 0.985
- Promotion (Pinto beans): 46.8%
- Protein nitrogen content, stimulation (Alfalfa; 1 treatment, 2 kg/ha): 54%
- Total nitrogen content, stimulation (Alfalfa; 1 treatment, 2 kg/ha): 24%
- Protein nitrogen content (Alfalfa; 1 treatment, 2 kg/ha): 3.48 % of dry substance
- Total nitrogen content (Alfalfa; 1 treatment, 2 kg/ha): 4.17 % of dry substance
- Stimulation (leaves of Pinto bean [1]): 79%
- Photolytic activity (leaves of Pinto bean [1]): 13.72 dpm/mg of glucose
- Green weight (maize for silage): 374 kg
- Total nitrogen content, absolute (maize for silage; 2 kg/ha): 0.40%
- Real protein content, absolute (maize for silage; 2 kg/ha): 1.71%
- Crude proteins, absolute (maize for silage; 2 kg/ha): 2.52%
- Total carbon content, absolute (maize for silage; 2 kg/ha): 9.99%
- Air-dry substance, absolute (maize for silage; 2 kg/ha): 22.79%
- activation at 200 ppm (Pea): 51.7%
- labelled phosphate in nucleic acid fraction (Pea): 38.4 1000 cpm/g
- Grain yield, increase (Soybean): 39%
- Grain yield (Soybean): 41.22 q/ha
- Protein nitrogen (Pinto bean): 4.1 % of dry weight
- Total nitrogen (Pinto bean): 4.8 % of dry weight
- Total nitrogen, stimulation (Pinto bean): 26.3%
- Protein nitrogen, stimulation (Pinto bean): 70.8%
- Protein nitrogen content in % of the total nitrogen content (Pinto bean): 85%
- labelled phosphate in nucleic acid fraction (Wheat): 29.3 1000 cpm/g
- activation at 200 ppm (Wheat; Triticum aestivum): 68.5%
- labelled phosphate in nucleic acid fraction (Maize): 47.0 1000 cpm/g
- activation at 200 ppm (Maize; Zea mays): 50.6%
- Protein nitrogen content, stimulation [2]: 28.5%
- Total nitrogen content, stimulation [2]: 5.6%
- Protein nitrogen content [2]: 2.07 % of dry substance
- Total nitrogen content [2]: 2.81 % of dry substance
- Stimulation (leaves of Pinto bean [3]): 39.0%

SMILES: CCC[n+]1c[nH]c2ccccc21.[Br-] [N--(n-Propyl)-benzimidazolium bromide, N-(n-propyl)-benzimidazolium bromide]
- Weight of grains, increase (Libelulla wheat variety): 65%
- Weight of grains collected from 100 ears (Libelulla wheat variety): 357.73 g
- Protein nitrogen content (grass stands): 3.54%
- Total nitrogen content (grass stands): 5.36%
- Crop yield (grass stands): 5.27
- Protein nitrogen content, increase (grass stands; in vivo): 26.4%
- Total nitrogen content, increase (grass stands; in vivo): 27.0%
- Extinction (Pinto beans): 1.081
- Promotion (Pinto beans): 61.2%
- Protein nitrogen content, stimulation (Alfalfa; 1 treatment, 2 kg/ha): 8%
- Total nitrogen content, stimulation (Alfalfa; 1 treatment, 2 kg/ha): 4%
- Protein nitrogen content (Alfalfa; 1 treatment, 2 kg/ha): 2.48 % of dry substance
- Total nitrogen content (Alfalfa; 1 treatment, 2 kg/ha): 3.51 % of dry substance
- Protein nitrogen content, stimulation (Alfalfa; 2 treatments, 2 kg/ha each): 22%
- Total nitrogen content, stimulation (Alfalfa; 2 treatments, 2 kg/ha each): 13%
- Protein nitrogen content (Alfalfa; 2 treatments, 2 kg/ha each): 2.75 % of dry substance
- Total nitrogen content (Alfalfa; 2 treatments, 2 kg/ha each): 3.91 % of dry substance
- Stimulation (leaves of Pinto bean [1]): 84%
- Photolytic activity (leaves of Pinto bean [1]): 14.08 dpm/mg of glucose
- Air-dry substance, relative (maize for silage; 2 kg/ha): 14.10%
- Crude proteins, relative (maize for silage; 2 kg/ha): 21.7%
- Real protein content, relative (maize for silage; 2 kg/ha): 4.4%
- Green weight (maize for silage): 389 kg
- Total nitrogen content, absolute (maize for silage; 2 kg/ha): 0.86%
- Real protein content, absolute (maize for silage; 2 kg/ha): 1.4%
- Crude proteins, absolute (maize for silage; 2 kg/ha): 2.25%
- Total carbon content, absolute (maize for silage; 2 kg/ha): 10.27%
- Air-dry substance, absolute (maize for silage; 2 kg/ha): 23.48%
- Carbon/nitrogen ratio (maize for silage; 2 kg/ha, control 30.86): 28.67
- labelled phosphate in nucleic acid fraction (Pea): 32.7 1000 cpm/g
- Grain yield, increase (Soybean): 30%
- Grain yield (Soybean): 38.67 q/ha
- Protein nitrogen (Pinto bean): 4.4 % of dry weight
- Total nitrogen (Pinto bean): 5.3 % of dry weight
- Total nitrogen, stimulation (Pinto bean): 39.4%
- Protein nitrogen, stimulation (Pinto bean): 83.3%
- Protein nitrogen content in % of the total nitrogen content (Pinto bean): 83%
- labelled phosphate in nucleic acid fraction (Wheat): 22.8 1000 cpm/g
- labelled phosphate in nucleic acid fraction (Maize): 39.3 1000 cpm/g
- Protein nitrogen content, stimulation [2]: 8.0%
- Total nitrogen content, stimulation [2]: 1.0%
- Protein nitrogen content [2]: 1.74 % of dry substance
- Total nitrogen content [2]: 2.15 % of dry substance
- Stimulation (leaves of Pinto bean [3]): 42.7%
- Radioactivity of the TCA-insoluble fraction (leaves of Pinto bean [3]; control 3.17): 4.52 1000 dpm/200 mg fresh weight
